17 compounds from patent US10477864B2, “Microbiocidal quinoline (thio)carboxamide derivatives” (priority 2016, dated 2019) can be followed below.

Some results are limits rather than exact numbers.

For orientation: melting point means the temperature of the solid-liquid transition.

The test system of data set [1] is Fusarium culmorum. In words: whole plant or invertebrate. In kind it is in vivo. The following applies: in Triticum aestivum, read-out: control of Fusarium culmorum.
For data set [2], the system named is Monographella nivalis (Microdochium nivale). The data set can be described thus: Monographella nivalis (Microdochium nivale) / liquid culture (foot rot cereals). As to conditions: 96 h, read-out: control of Monographella nivalis. In kind it is cell-based.
For data set [3], the system named is Botryotinia fuckeliana (Botrytis cinerea). The data set can be described thus: Botryotinia fuckeliana (Botrytis cinerea) / liquid culture (gray mould). As to conditions: 72 h, read-out: control of Botryotinia fuckeliana. In kind it is cell-based.
Data set [4] concerns Fusarium culmorum. In words: microbe, parasite or virus in culture. In kind it is cell-based. As to conditions: read-out: control of Fusarium culmorum.
In data set [5] the test system is Glomerella lagenarium (Colletotrichum lagenarium). The data set can be described thus: Glomerella lagenarium (Colletotrichum lagenarium) / liquid culture (anthracnose). In kind it is cell-based. The following applies: Colletotrichum orbiculare; read-out: control of Glomerella lagenarium.

Consider `C/C=C/C(C)(Cc1ccccc1)NC(=O)c1cnc2ccccc2c1` (stereo not shown) [Compound E-88, N-[(E)-1-benzyl-1-methyl-but-2-enyl]quinoline-3-carboxamide], for which the pest or weed control at 200 ppm in data set [1] is at least 80%. In addition, the inhibition of growth at 200 ppm in data set [2], in data set [3] and in data set [4] was at least 80% each time.

Consider `C=CCC(Cc1ccccc1)(NC(=O)c1cnc2c(F)cccc2c1)C(F)(F)F` (stereo not shown) [Compound E-92, N-[1-benzyl-1-(trifluoromethyl)but-3-enyl]-8-fluoro-quinoline-3-carboxamide], for which the pest or weed control at 200 ppm in data set [1] is at least 80%. In addition, the inhibition of growth at 200 ppm in data set [5], in data set [2], in data set [3] and in data set [4] was at least 80% throughout.

For the compound `CC(Cc1ccccc1)(CC(F)(F)Cl)NC(=O)c1cnc2c(F)cccc2c1` (stereo not shown) [Compound E-97, N-(1-benzyl-3-chloro-3,3-difluoro-1-methyl-propyl)-8-fluoro-quinoline-3-carboxamide], the pest or weed control at 200 ppm in data set [1] is at least 80%. For the same compound, the inhibition of growth at 200 ppm in data set [5], in data set [2], in data set [3] and in data set [4] was at least 80% in each case.

`CC(Cc1ccccc1)(CC1CCC1)NC(=O)c1cnc2c(F)cccc2c1` (stereo not shown) [Compound E-112, N-(1-benzyl-2-cyclobutyl-1-methyl-ethyl)-8-fluoro-quinoline-3-carboxamide] came in with a melting point of 125 to 127 °C. Further, in data set [5], the inhibition of growth at 200 ppm is at least 80%. In addition, the inhibition of growth at 200 ppm in data set [2] was at least 80%. Also, the inhibition of growth at 200 ppm in data set [3] was at least 80%. The inhibition of growth at 200 ppm in data set [4] was at least 80%.

Turning to `CCOC(OCC)C(C)(Cc1ccccc1)NC(=O)c1cnc2c(F)cccc2c1` (stereo not shown) [Compound E-116, N-(1-benzyl-2,2-diethoxy-1-methyl-ethyl)-8-fluoro-quinoline-3-carboxamide], the inhibition of growth at 200 ppm in data set [2], in data set [3] and in data set [4] was at least 80% in each case.

Consider `CON=CC(C)(Cc1ccccc1)NC(=O)c1cnc2c(F)cccc2c1` (stereo not shown) [Compound E-117, N-(1-benzyl-2-methoxyimino-1-methyl-ethyl)-8-fluoro-quinoline-3-carboxamide], for which the inhibition of growth at 200 ppm in data set [2], in data set [3] and in data set [4] was at least 80% throughout.

As to `COCCC(C)(Cc1ccccc1)NC(=O)c1cnc2c(F)cccc2c1` (stereo not shown) [Compound E-121, N-(1-benzyl-3-methoxy-1-methyl-propyl)-8-fluoro-quinoline-3-carboxamide], the inhibition of growth at 200 ppm in data set [2], in data set [3] and in data set [4] was at least 80% throughout.

Consider `COc1ccc2cc(C(=O)NC(C)(Cc3ccccc3)CC(C)C)cnc2c1` (stereo not shown) [Compound E-122, N-(1-benzyl-1,3-dimethyl-butyl)-7-methoxy-quinoline-3-carboxamide], for which the melting point was in the range of 136 to 138 °C. Also, the inhibition of growth at 200 ppm in data set [2] was at least 80%.

Compound `COc1cccc2cc(C(=O)NC(C)(Cc3ccccc3)CC(C)C)cnc12` (stereo not shown) [Compound E-123, N-(1-benzyl-1,3-dimethyl-butyl)-8-methoxy-quinoline-3-carboxamide] registered a melting point of 155 to 156 °C. Moreover, in data set [2], the inhibition of growth at 200 ppm was at least 80%. In addition, the inhibition of growth at 200 ppm in data set [3] is at least 80%. In addition, the inhibition of growth at 200 ppm in data set [4] is at least 80%.

In the case of `C=C(C)C[C@@](C)(Cc1ccccc1)NC(=O)c1cnc2c(F)cccc2c1` [Compound F-9, N-[(1S)-1-benzyl-1,3-dimethyl-but-3-enyl]-8-fluoro-quinoline-3-carboxamide], in data set [1], the pest or weed control at 200 ppm was at least 80%. Moreover, the inhibition of growth at 200 ppm in data set [5], in data set [2], in data set [3] and in data set [4] was at least 80% throughout.

For the compound `C=C(C)C[C@](C)(Cc1ccccc1)NC(=O)c1cnc2c(F)c(F)ccc2c1` [Compound F-20, N-[(1R)-1-benzyl-1,3-dimethyl-but-3-enyl]-7,8-difluoro-quinoline-3-carboxamide], the pest or weed control at 200 ppm in data set [1] was at least 80%. Further, the inhibition of growth at 200 ppm in data set [5], in data set [2], in data set [3] and in data set [4] was at least 80% throughout.

`CC(C)(F)C[C@@](C)(Cc1ccccc1)NC(=O)c1cnc2c(F)cccc2c1` [Compound F-23, N-[(1R)-1-benzyl-3-fluoro-1,3-dimethyl-butyl]-8-fluoro-quinoline-3-carboxamide]: the pest or weed control at 200 ppm in data set [1] is at least 80%. Further, the inhibition of growth at 200 ppm in data set [5], in data set [2], in data set [3] and in data set [4] was at least 80% in each case.

With `CC(F)(F)C[C@](C)(Cc1ccccc1)NC(=O)c1cnc2ccccc2c1` [Compound F-25, N-[(1S)-1-benzyl-3,3-difluoro-1-methyl-butyl]quinoline-3-carboxamide], in data set [1], the pest or weed control at 200 ppm was at least 80%. In addition, the inhibition of growth at 200 ppm in data set [5], in data set [2], in data set [3] and in data set [4] was at least 80% each time.

Regarding `Cc1cccc2cc(C(=O)N[C@@](C)(Cc3ccccc3)CC(F)(F)F)cnc12` [Compound F-27, N-[(1S)-1-benzyl-3,3,3-trifluoro-1-methyl-propyl]-8-methyl-quinoline-3-carboxamide], the pest or weed control at 200 ppm in data set [1] is at least 80%. Further, the inhibition of growth at 200 ppm in data set [5], in data set [2], in data set [3] and in data set [4] was at least 80% in each case.

For `Cc1c(C(=O)N[C@@](C)(Cc2ccccc2)CC(F)(F)F)cnc2c(F)cccc12` [Compound F-29, N-[(1S)-1-benzyl-3,3,3-trifluoro-1-methyl-propyl]-8-fluoro-4-methyl-quinoline-3-carboxamide], in data set [1], the pest or weed control at 200 ppm is at least 80%. Further, the inhibition of growth at 200 ppm in data set [5], in data set [2], in data set [3] and in data set [4] was at least 80% in each case.

For `Cc1c(C(=O)N[C@](C)(Cc2ccccc2)CC(F)(F)F)cnc2c(F)cccc12` [Compound F-30, N-[(1R)-1-benzyl-3,3,3-trifluoro-1-methyl-propyl]-8-fluoro-4-methyl-quinoline-3-carboxamide], the inhibition of growth at 200 ppm in data set [5], in data set [2], in data set [3] and in data set [4] was at least 80% throughout.

For the compound `C[C@](Cc1ccccc1)(CC(F)F)NC(=O)c1cnc2c(F)cccc2c1` [Compound F-32, N-[(1S)-1-benzyl-3,3-difluoro-1-methyl-propyl]-8-fluoro-quinoline-3-carboxamide], in data set [1], the pest or weed control at 200 ppm was at least 80%. Further, the inhibition of growth at 200 ppm in data set [5], in data set [2], in data set [3] and in data set [4] was at least 80% in each case.
